≈ marks a conversion by molar mass, not a printed value.
Key:
[1] = target: Hepatocyte growth factor receptor (Homo sapiens, UniProt P08581, D1228N); test: Inhibition of N-terminal GST-tagged recombinant human c-MET D1228N mutant (956 to end residues) extracted from baculovirus infected Sf9 cells using 5-FAM-KKKKEEIYFFF-CONH2 as substrate preincubated for 30 mins followed by ATP addition measured after 60 mins by fluorescence-based microfluidic mobility shift assay
[2] = cells; settings: Mus musculus, BaF3/TRP-Met, 72 h
[3] = Kinetic solubility of compound at pH 4.5; assay type: physicochemical; settings: buffer, read-out: Kinetic_solubility
[4] = Half life in female Balb/c mouse at 1 mg/kg, iv; assay type: ADME, organism-based; settings: in vivo
[5] = tested on: BaF3; test: cells; settings: Mus musculus, BaF3, 72 h
[6] = Antitumor activity against human LU2503 cells xenografted in athymic BALB/c nude mouse at 2 mg/kg, po bid treated for 14 days relative to control; assay type: functional; settings: LU2503, 336 h, time 14 day, read-out: TGI
[7] = species on record: Homo sapiens; test: Inhibition of c-MET Y1230 mutant (unknown origin) at 100 nM in presence of ATP by HotSpot Kinome Selectivity analysis
[8] = tested on: BaF3; test: cells; settings: Mus musculus, BaF3, 72 h; remark: listed apart in the source
[9] = Half life in male Beagle dog at 1 mg/kg, iv; assay type: ADME, organism-based, Canis lupus familiaris; settings: in vivo
[10] = tested on: BaF3; test: cells; settings: Mus musculus, BaF3, 72 h; remark: listed apart in the source
[11] = tested on: BaF3; test: cells; settings: Mus musculus, BaF3, 72 h; remark: listed apart in the source
[12] = tested on: BaF3; test: cells; settings: Mus musculus, BaF3, 72 h; remark: listed apart in the source
[13] = species on record: Homo sapiens; test: Inhibition of sodium channel site 2 (unknown origin) at 10 uM by CEREP analysis relative to control
[14] = target: 3',5'-cyclic-AMP phosphodiesterase 4D (Homo sapiens) (UniProt Q08499); test: Inhibition of PDE4D2 (unknown origin) at 10 uM by CEREP analysis relative to control
[15] = tested on: EBC-1; test: Antitumor activity against human EBC-1 cells xenografted in athymic BALB/c nude mouse at 60 mg/kg, po bid treated for 21 days relative to control; assay type: functional; settings: EBC-1, 504 h, time 21 day, read-out: TGI
[16] = tested on: BaF3; test: cells; settings: Mus musculus, BaF3, 72 h; remark: listed apart in the source
[17] = target: 5-hydroxytryptamine receptor 1B (Homo sapiens) (UniProt P28222); test: Inhibition of 5-HT1B receptor (unknown origin) at 10 uM by CEREP analysis relative to control
[18] = tested on: BaF3; test: cells; settings: Mus musculus, BaF3, 72 h; remark: listed apart in the source
[19] = Toxicity in athymic BALB/c nude mouse xenografted with human EBC-1 cells assessed as body weight loss at 2 to 60 mg/kg, po bid treated for 10 to 21 days; assay type: organism-based; settings: in vivo, dose lower 2 mg/kg, time lower 10 day, dose upper 60 mg/kg, time upper 21 day
[20] = Clearance in female Balb/c mouse at 1 mg/kg, iv; assay type: ADME, organism-based; settings: in vivo
[21] = target: 5-hydroxytryptamine receptor 2B (Homo sapiens) (UniProt P41595); test: Inhibition of 5-HT2B receptor (unknown origin) at 10 uM by CEREP analysis relative to control
[22] = Clearance in male Beagle dog at 1 mg/kg, iv; assay type: ADME, organism-based, Canis lupus familiaris; settings: in vivo
[23] = AUClast in male Beagle dog at 10 mg/kg, po; assay type: ADME, organism-based, Canis lupus familiaris; settings: in vivo
[24] = AUClast in male Sprague-Dawley rat at 10 mg/kg, po; assay type: ADME, organism-based; settings: in vivo
[25] = tested on: BaF3; test: cells; settings: Mus musculus, BaF3, 72 h; remark: listed apart in the source
[26] = target: Cytochrome P450 3A4 (Homo sapiens, UniProt P08684); test: Inhibition of CYP3A4 (unknown origin); assay type: ADME; settings: human
[27] = AUCfree in rat measured for 28 days; assay type: ADME; settings: in vivo, 672 h, time 28 day
[28] = tested on: BaF3; test: cells; settings: Mus musculus, BaF3, 72 h; remark: listed apart in the source
[29] = tested on: BaF3; test: Antitumor activity against mouse BaF3 cells harboring TPR-D1228N mutant cells allografted in athymic BALB/c nude mouse at 20 mg/kg, po bid treated for 10 days relative to control; assay type: functional; settings: BaF3, 240 h, time 10 day, read-out: TGI
[30] = target: PXR (Homo sapiens, UniProt O75469); test: Induction of PXR (unknown origin) assessed as fold increase in activity at 1 uM relative to control; assay type: toxicity; settings: read-out: FC
Sequence of PXR (O75469 whole entry): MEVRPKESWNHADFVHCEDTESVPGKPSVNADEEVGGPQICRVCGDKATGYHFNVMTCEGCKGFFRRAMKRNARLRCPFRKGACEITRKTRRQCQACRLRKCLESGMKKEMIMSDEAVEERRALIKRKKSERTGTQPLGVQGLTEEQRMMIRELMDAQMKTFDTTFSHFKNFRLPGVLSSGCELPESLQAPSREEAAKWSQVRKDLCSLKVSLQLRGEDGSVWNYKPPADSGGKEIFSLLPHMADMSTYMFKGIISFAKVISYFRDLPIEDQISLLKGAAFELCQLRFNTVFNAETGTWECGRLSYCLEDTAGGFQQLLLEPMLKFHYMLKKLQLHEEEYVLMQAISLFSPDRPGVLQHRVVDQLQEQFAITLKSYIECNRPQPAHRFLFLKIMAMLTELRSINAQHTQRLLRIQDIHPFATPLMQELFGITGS

[31] = Toxicity in dog assessed as drug tolerance measured for 28 days; design: species or system Canis lupus familiaris; settings: in vivo, 672 h, time 28 day
[32] = target: Sodium-dependent serotonin transporter (Homo sapiens) (UniProt P31645); test: Inhibition of SERT (unknown origin) at 10 uM by CEREP analysis relative to control
Sequence of Sodium-dependent serotonin transporter (Homo sapiens) (P31645 whole entry, looked up): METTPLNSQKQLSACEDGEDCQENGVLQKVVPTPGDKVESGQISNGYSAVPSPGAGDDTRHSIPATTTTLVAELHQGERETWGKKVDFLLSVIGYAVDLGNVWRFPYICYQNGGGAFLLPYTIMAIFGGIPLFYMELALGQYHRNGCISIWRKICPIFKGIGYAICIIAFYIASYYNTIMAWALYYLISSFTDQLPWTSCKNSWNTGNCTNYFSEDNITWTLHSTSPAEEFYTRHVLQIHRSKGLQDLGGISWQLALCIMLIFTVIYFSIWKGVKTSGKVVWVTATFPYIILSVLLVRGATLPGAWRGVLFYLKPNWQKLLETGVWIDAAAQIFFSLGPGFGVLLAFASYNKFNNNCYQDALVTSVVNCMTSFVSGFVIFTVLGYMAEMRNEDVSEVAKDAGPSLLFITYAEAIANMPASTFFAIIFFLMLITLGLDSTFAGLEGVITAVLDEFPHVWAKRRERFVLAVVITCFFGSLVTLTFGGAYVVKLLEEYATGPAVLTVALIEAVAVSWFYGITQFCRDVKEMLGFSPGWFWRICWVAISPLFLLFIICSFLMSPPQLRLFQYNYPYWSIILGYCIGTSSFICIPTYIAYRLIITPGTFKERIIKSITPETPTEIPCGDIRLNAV

[33] = target: hERG (Homo sapiens, UniProt Q12809); test: Inhibition of hERG at 10 uM by CEREP analysis relative to control; assay type: toxicity
Sequence of hERG (Q12809 whole entry): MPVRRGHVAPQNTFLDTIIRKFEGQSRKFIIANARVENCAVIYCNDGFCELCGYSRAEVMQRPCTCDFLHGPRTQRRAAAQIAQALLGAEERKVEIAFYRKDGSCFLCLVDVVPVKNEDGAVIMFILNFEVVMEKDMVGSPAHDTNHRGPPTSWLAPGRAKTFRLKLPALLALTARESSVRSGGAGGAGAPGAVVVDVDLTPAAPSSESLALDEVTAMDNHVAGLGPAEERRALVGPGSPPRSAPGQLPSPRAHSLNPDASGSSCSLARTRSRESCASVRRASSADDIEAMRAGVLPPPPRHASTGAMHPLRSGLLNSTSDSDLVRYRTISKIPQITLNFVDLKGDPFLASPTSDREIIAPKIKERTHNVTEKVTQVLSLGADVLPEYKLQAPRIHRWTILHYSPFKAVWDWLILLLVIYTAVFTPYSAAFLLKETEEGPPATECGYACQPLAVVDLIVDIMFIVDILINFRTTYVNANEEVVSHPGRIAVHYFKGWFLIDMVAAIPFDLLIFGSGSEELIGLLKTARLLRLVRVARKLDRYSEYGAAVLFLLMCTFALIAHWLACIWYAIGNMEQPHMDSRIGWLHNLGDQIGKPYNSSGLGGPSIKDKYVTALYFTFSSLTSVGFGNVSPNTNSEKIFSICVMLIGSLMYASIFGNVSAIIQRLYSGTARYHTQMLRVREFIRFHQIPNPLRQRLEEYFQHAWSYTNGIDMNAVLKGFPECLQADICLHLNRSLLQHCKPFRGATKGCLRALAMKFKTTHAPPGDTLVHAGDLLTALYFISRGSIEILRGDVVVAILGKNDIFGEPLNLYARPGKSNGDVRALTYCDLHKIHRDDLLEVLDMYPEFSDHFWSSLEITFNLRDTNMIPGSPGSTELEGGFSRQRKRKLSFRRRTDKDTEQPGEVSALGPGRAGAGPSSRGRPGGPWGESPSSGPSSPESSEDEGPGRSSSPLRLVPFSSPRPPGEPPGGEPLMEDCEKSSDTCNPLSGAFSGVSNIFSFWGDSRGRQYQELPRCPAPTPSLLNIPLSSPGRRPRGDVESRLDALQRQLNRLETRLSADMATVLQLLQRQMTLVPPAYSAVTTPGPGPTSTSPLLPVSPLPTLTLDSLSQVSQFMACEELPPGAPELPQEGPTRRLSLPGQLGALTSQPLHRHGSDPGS

[34] = Toxicity in athymic BALB/c nude mouse xenografted with human LU2503 cells assessed as body weight loss at 2 to 60 mg/kg, po bid treated for 10 to 21 days; assay type: organism-based; settings: in vivo, dose lower 2 mg/kg, time lower 10 day, dose upper 60 mg/kg, time upper 21 day
[35] = Antitumor activity against human LU2503 cells xenografted in athymic BALB/c nude mouse at 6 mg/kg, po bid treated for 14 days relative to control; assay type: functional; settings: LU2503, 336 h, time 14 day, read-out: TGI
[36] = AUClast in Balb/c mouse at 10 mg/kg, po; assay type: ADME, organism-based; settings: in vivo
[37] = species on record: Homo sapiens; test: Inhibition of c-MET G1163R mutant (unknown origin) at 100 nM in presence of ATP by HotSpot Kinome Selectivity analysis
[38] = AUCfree in dog measured for 28 days; assay type: ADME, Canis lupus familiaris; settings: in vivo, 672 h, time 28 day
[39] = Clearance in male Sprague-Dawley rat at 3 mg/kg, iv; assay type: ADME, organism-based; settings: in vivo
[40] = tested on: Hepatocyte growth factor receptor (Homo sapiens), P08581 [Y1235D]; test: Inhibition of c-MET Y1235D mutant (unknown origin) at 100 nM in presence of ATP by HotSpot Kinome Selectivity analysis
Sequence of Hepatocyte growth factor receptor (Homo sapiens), P08581 [Y1235D] (P08581 whole entry Y1235D): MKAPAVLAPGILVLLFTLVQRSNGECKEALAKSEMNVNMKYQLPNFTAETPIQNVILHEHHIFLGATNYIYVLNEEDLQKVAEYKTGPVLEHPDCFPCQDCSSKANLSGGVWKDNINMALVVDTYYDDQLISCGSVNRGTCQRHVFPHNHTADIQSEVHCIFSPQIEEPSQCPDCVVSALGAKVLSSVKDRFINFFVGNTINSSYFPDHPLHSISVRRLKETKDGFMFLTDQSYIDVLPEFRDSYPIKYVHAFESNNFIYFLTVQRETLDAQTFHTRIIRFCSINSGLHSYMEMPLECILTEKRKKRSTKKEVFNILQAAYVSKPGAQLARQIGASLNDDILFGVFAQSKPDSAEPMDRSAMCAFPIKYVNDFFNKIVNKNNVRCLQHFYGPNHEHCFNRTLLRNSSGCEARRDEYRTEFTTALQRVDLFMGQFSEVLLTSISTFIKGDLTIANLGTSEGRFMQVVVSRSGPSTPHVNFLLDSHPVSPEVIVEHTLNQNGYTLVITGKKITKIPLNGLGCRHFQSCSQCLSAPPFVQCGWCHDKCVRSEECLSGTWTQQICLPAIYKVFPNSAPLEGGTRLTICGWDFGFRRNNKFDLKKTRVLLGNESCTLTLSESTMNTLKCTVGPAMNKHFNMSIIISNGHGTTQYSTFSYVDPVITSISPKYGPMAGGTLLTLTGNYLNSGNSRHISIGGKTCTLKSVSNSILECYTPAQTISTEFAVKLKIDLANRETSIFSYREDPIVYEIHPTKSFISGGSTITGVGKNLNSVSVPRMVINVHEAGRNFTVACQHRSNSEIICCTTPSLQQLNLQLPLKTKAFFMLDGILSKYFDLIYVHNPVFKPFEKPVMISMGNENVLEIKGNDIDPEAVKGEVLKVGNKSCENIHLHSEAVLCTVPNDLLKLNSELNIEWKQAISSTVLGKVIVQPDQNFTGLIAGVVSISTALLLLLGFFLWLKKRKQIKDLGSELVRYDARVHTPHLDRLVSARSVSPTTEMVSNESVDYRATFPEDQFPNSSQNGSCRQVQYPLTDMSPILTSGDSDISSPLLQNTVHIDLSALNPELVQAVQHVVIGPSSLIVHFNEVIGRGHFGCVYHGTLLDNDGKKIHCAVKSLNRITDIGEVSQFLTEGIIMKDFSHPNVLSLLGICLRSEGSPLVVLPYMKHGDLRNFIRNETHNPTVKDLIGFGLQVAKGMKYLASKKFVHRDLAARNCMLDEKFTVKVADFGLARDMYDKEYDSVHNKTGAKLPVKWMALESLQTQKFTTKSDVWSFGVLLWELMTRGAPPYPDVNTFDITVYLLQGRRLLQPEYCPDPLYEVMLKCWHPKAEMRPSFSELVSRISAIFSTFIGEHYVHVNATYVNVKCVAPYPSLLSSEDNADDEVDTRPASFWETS

[41] = target: L-type calcium channel (Homo sapiens, UniProt O60840+Q01668+Q13698+Q13936); test: Inhibition of Calcium channel L-type (unknown origin) at 10 uM by CEREP analysis relative to control; assay type: protein assay
[42] = tested on: BaF3; test: Antitumor activity against mouse BaF3 cells harboring TPR-D1228N mutant cells allografted in athymic BALB/c nude mouse at 2 mg/kg, po bid treated for 10 days relative to control; assay type: functional; settings: BaF3, 240 h, time 10 day, read-out: TGI
[43] = species on record: Homo sapiens; test: Inhibition of c-MET L1195X/F1200X mutant (unknown origin) at 100 nM in presence of ATP by HotSpot Kinome Selectivity analysis

Sequence of Hepatocyte growth factor receptor (P08581 25-1390 D1228N limits assumed): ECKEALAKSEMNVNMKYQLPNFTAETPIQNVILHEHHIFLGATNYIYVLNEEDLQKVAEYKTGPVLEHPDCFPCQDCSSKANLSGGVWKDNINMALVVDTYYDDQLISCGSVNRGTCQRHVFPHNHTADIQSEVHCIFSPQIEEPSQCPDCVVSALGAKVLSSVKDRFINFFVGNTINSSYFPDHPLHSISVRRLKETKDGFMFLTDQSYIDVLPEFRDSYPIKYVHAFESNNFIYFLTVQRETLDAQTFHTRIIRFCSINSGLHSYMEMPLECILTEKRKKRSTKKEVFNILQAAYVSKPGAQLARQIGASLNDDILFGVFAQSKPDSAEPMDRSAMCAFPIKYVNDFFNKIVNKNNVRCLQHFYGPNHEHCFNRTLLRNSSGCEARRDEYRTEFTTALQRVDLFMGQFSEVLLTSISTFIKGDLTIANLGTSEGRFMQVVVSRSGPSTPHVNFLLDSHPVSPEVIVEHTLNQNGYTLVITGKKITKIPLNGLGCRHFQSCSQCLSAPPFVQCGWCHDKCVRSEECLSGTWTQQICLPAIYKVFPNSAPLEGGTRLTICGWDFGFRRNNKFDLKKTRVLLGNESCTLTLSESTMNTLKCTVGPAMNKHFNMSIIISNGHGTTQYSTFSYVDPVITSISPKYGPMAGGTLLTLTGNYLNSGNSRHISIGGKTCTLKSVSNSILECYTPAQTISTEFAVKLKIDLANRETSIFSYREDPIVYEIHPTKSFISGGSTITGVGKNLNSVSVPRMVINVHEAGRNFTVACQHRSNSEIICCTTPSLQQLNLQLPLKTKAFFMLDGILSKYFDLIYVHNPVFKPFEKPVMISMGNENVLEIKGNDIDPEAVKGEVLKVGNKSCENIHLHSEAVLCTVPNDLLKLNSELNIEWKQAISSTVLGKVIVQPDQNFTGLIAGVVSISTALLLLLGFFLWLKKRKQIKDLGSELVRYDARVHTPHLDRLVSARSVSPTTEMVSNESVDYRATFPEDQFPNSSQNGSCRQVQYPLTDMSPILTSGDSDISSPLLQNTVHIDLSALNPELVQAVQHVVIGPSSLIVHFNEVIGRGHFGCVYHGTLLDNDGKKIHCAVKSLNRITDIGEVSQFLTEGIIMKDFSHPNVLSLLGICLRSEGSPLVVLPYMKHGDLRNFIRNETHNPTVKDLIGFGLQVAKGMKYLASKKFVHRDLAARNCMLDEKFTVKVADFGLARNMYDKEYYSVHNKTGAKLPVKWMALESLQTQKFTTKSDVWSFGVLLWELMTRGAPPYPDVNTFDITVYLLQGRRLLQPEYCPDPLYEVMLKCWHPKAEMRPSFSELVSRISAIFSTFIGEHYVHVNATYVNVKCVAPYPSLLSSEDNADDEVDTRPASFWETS

Question: What does the source list for `COc1cc2nccc(Oc3c(F)cc(NC(=O)c4cnccc4OC)cc3F)c2cc1O[C@@H](C)CO`?
Answer: IC50 [1]: 0.2 nM; EC50 [2]: 11 nM; solubility kinetic [3]: 145 µM (≈ 74.2 µg/mL); half-life [4]: 1.8 h; EC50 [5]: 8.6 nM; inhibition in vivo at 2 mg/kg [6]: 43%; inhibition [7]: 0%; EC50 [8]: 9.1 nM; half-life [9]: 6.3 h; EC50 [10]: 51 nM; EC50 [11]: 19 nM; EC50 [12]: 0.7 nM; inhibition [13]: 40%; inhibition [14]: 65%; inhibition in vivo at 60 mg/kg [15]: 110%; EC50 [16]: 3.2 nM; inhibition [17]: -3%; EC50 [18]: 538 nM; Activity [19]: Non-toxic; clearance [20]: 14.3 mL/min/kg; inhibition [21]: 48%; clearance [22]: 3.5 mL/min/kg; AUC(0-t) [23]: 26400 ng·h/mL; AUC(0-t) [24]: 18600 ng·h/mL; EC50 [25]: 18 nM; inhibition (INH) [26]: Not_active; fAUC [27]: 5100 ng·h/mL; EC50 [28]: 37 nM; inhibition in vivo at 20 mg/kg [29]: 89%; fold induction at 1 µM [30]: < 1.5; Activity [31]: Non-toxic; inhibition [32]: 1%; inhibition at 10 µM [33]: 18%; Activity [34]: Non-toxic; inhibition in vivo at 6 mg/kg [35]: 77%; AUC(0-t) [36]: 13500 ng·h/mL; inhibition [37]: 63%; fAUC [38]: 5100 ng·h/mL; clearance [39]: 11.2 mL/min/kg; inhibition [40]: 85%; inhibition at 10 µM [41]: -4%; inhibition in vivo at 2 mg/kg [42]: 26%; inhibition [43]: -4%

Reference: ChEMBL document CHEMBL6182925 (J Med Chem, 2025)
